Test results published in patent US20060069132A1, “Azolecarboxamide herbicides” (priority 2004, published 2006).

Experiments:
canarygrass = test: Test C postemergence herbicide test; format: in vivo, Phalaris minor
Method in brief: (§1)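 Postemergence sprays were applied to plants 2 to 18 cm tall (1- to 4-leaf stage); in the flooded paddy test, barnyardgrass was grown to the 2-leaf stage. After 12 to 14 days in a greenhouse, injury was visually rated against untreated controls on a 0–100 scale (100 = complete control).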

common chickweed = test: Test E pre-/postemergence herbicide test; format: in vivo, Stellaria media
Method in brief: (§2)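 Each species was compared with untreated controls 12 to 14 days after greenhouse application and assigned a visual score from 0 (no effect) to 100 (complete control). Applications were preemergence to seeded soil or postemergence to 1- to 4-leaf plants, using a solvent-plus-surfactant formulation.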

common purslane = test: Test E pre-/postemergence herbicide test; format: in vivo, Portulaca oleracea
Method in brief: as §2

common sowthistle = test: Test E pre-/postemergence herbicide test; format: in vivo, Sonchus oleraceous
Method in brief: as §2

mustard = test: Test E pre-/postemergence herbicide test; format: in vivo, Brassica nigra
Method in brief: as §2

blackgrass = test: Test C postemergence herbicide test; format: in vivo, Alopecurus myosuroides
Method in brief: as §1

annual bluegrass = test: Test E pre-/postemergence herbicide test; format: in vivo, Poa annua
Method in brief: as §2

windgrass = test: Test C postemergence herbicide test; format: in vivo, Apera spica-venti
Method in brief: as §1

green foxtail = test: Test C postemergence herbicide test; format: in vivo, Setaria viridis
Method in brief: as §1

tropical spiderwort = test: Test E pre-/postemergence herbicide test; format: in vivo, Commelina benghalensis
Method in brief: as §2

goosegrass = test: Test E pre-/postemergence herbicide test; format: in vivo, Eleusine indica
Method in brief: as §2

itchgrass = test: Test E pre-/postemergence herbicide test; format: in vivo, Rottboellia cochinchinensis
Method in brief: as §2

southern sandbur = test: Test E pre-/postemergence herbicide test; format: in vivo, Cenchrus echinatus
Method in brief: as §2

Italian ryegrass = test: Test C postemergence herbicide test; format: in vivo, Lolium multiflorum
Method in brief: as §1

[1] = Postemergence, 500 g ai/ha, scale 0 to 100
[2] = Postemergence, 250 g ai/ha, scale 0 to 100, 0 no effect, 100 complete control
[3] = postemergence, 125 g ai/ha, scale 0 to 100
[4] = postemergence, 62 g ai/ha, scale 0 to 100
[5] = Preemergence, 62 g ai/ha, scale 0 to 100
[6] = Preemergence, 125 g ai/ha, scale 0 (no effect) to 100 (complete control)
[7] = Preemergence, 250 g ai/ha, scale 0 (no effect) to 100 (complete control)
[8] = Preemergence, 500 g ai/ha, scale 0 (no effect) to 100 (complete control)
[9] = Postemergence, 250 g ai/ha, scale 0 to 100
[10] = Preemergence, 125 g ai/ha, scale 0 to 100

Question: Which “Canarygrass plant response rating” value (canarygrass; [1]) does the source give for `CCNC(=O)c1cccc(NC(=O)c2cc(C(C)(C)C)nn2CC)n1` [Compound 144] here?
Answer: 50

Question: What about the “Plant response rating, Canarygrass” value (canarygrass; [2]) of the same molecule?
Answer: 40

Question: And the “Plant response rating, Canarygrass” value (canarygrass; [3])?
Answer: 40

Question: What about the “Plant response rating, Canarygrass” value (canarygrass; [4]) of the same molecule?
Answer: 40

Question: And the “Plant response rating, Chickweed” value (common chickweed; [5])?
Answer: 50

Question: What about the “Plant response rating, Chickweed” value (common chickweed; [6]) of the same molecule?
Answer: 90

Question: What about the “Plant response rating, Chickweed” value (common chickweed; [7]) of the same molecule?
Answer: 95

Question: And the “Plant response rating, Chickweed” value (common chickweed; [8])?
Answer: 95

Question: And the “Plant response rating, Purslane” value (common purslane; [5])?
Answer: 0

Question: What about the “Plant response rating, Purslane” value (common purslane; [6]) of the same molecule?
Answer: 20

Question: And the “Plant response rating, Purslane” value (common purslane; [7])?
Answer: 90

Question: And the “Plant response rating, Purslane” value (common purslane; [8])?
Answer: 100

Question: And the “Plant response rating, Sowthistle” value (common sowthistle; [5])?
Answer: 10

Question: And the “Plant response rating, Sowthistle” value (common sowthistle; [6])?
Answer: 50

Question: What about the “Plant response rating, Sowthistle” value (common sowthistle; [7]) of the same molecule?
Answer: 90

Question: And the “Plant response rating, Sowthistle” value (common sowthistle; [8])?
Answer: 95

Question: What about the “Plant response rating, Black Mustard” value (mustard; [5]) of the same molecule?
Answer: 20

Question: What about the “Plant response rating, Black Mustard” value (mustard; [6]) of the same molecule?
Answer: 70

Question: And the “Plant response rating, Black Mustard” value (mustard; [7])?
Answer: 75

Question: And the “Plant response rating, Black Mustard” value (mustard; [8])?
Answer: 100

Question: What about the “Blackgrass plant response rating” value (blackgrass; [1]) of the same molecule?
Answer: 40

Question: And the “Plant response rating, Blackgrass” value (blackgrass; [2])?
Answer: 40

Question: And the “Plant response rating, Blackgrass” value (blackgrass; [3])?
Answer: 30

Question: And the “Plant response rating, Blackgrass” value (blackgrass; [4])?
Answer: 30

Question: And the “Plant response rating, Bluegrass” value (annual bluegrass; [5])?
Answer: 80

Question: And the “Plant response rating, Bluegrass” value (annual bluegrass; [6])?
Answer: 90

Question: What about the “Plant response rating, Bluegrass” value (annual bluegrass; [7]) of the same molecule?
Answer: 100

Question: What about the “Plant response rating, Bluegrass” value (annual bluegrass; [8]) of the same molecule?
Answer: 100

Question: What about the “Windgrass plant response rating” value (windgrass; [1]) of the same molecule?
Answer: 70

Question: And the “Plant response rating, Windgrass” value (windgrass; [2])?
Answer: 60

Question: What about the “Plant response rating, Windgrass” value (windgrass; [3]) of the same molecule?
Answer: 60

Question: What about the “Plant response rating, Windgrass” value (windgrass; [4]) of the same molecule?
Answer: 50

Question: What about the “Foxtail, Green plant response rating” value (green foxtail; [1]) of the same molecule?
Answer: 60

Question: What about the “Plant response rating, Foxtail, Green” value (green foxtail; [2]) of the same molecule?
Answer: 60

Question: And the “Plant response rating, Foxtail, Green” value (green foxtail; [3])?
Answer: 60

Question: And the “Plant response rating, Foxtail, Green” value (green foxtail; [4])?
Answer: 40

Question: And the “Plant response rating, Spiderwort” value (tropical spiderwort; [5])?
Answer: 60

Question: And the “Plant response rating, Spiderwort” value (tropical spiderwort; [6])?
Answer: 60

Question: What about the “Plant response rating, Spiderwort” value (tropical spiderwort; [7]) of the same molecule?
Answer: 60

Question: And the “Plant response rating, Spiderwort” value (tropical spiderwort; [8])?
Answer: 100

Question: What about the “Plant response rating, Goosegrass” value (goosegrass; [5]) of the same molecule?
Answer: 20

Question: What about the “Plant response rating, Goosegrass” value (goosegrass; [6]) of the same molecule?
Answer: 50

Question: And the “Plant response rating, Goosegrass” value (goosegrass; [7])?
Answer: 80

Question: And the “Plant response rating, Goosegrass” value (goosegrass; [8])?
Answer: 80

Question: And the “Plant response rating, Itchgrass” value (itchgrass; [5])?
Answer: 20

Question: What about the “Plant response rating, Itchgrass” value (itchgrass; [6]) of the same molecule?
Answer: 70

Question: What about the “Plant response rating, Itchgrass” value (itchgrass; [7]) of the same molecule?
Answer: 70

Question: What about the “Plant response rating, Itchgrass” value (itchgrass; [8]) of the same molecule?
Answer: 75

Question: And the “Plant response rating, Sandbur” value (southern sandbur; [5])?
Answer: 10

Question: And the “Plant response rating, Sandbur” value (southern sandbur; [6])?
Answer: 30

Question: And the “Plant response rating, Sandbur” value (southern sandbur; [7])?
Answer: 30

Question: And the “Plant response rating, Sandbur” value (southern sandbur; [8])?
Answer: 60

Question: And the “Ryegrass, Italian plant response rating” value (Italian ryegrass; [1])?
Answer: 50

Question: What about the “Plant response rating, Ryegrass, Italian” value (Italian ryegrass; [2]) of the same molecule?
Answer: 40

Question: And the “Plant response rating, Ryegrass, Italian” value (Italian ryegrass; [3])?
Answer: 20

Question: And the “Plant response rating, Ryegrass, Italian” value (Italian ryegrass; [4])?
Answer: 20

Question: Which results are given for `CCn1nc(C(C)(C)C)cc1C(=O)Nc1cc(C(=O)N(C)C)ccn1` [Compound 156, 2-[[[3-(1,1-dimethylethyl)-1-ethyl-1H-pyrazol-5-yl]carbonyl]amino]-N,N-dimethyl-4-pyridinecarboxamide]?
Answer: Plant response rating, Chickweed (common chickweed; [1]): 100; Plant response rating, Chickweed (common chickweed; [9]): 100; Plant response rating, Chickweed (common chickweed; [5]): 80; Plant response rating, Chickweed (common chickweed; [10]): 100; Plant response rating, Chickweed (common chickweed; [7]): 100; Plant response rating, Chickweed (common chickweed; [8]): 100; Plant response rating, Chickweed (common chickweed; [3]): 100; Plant response rating, Chickweed (common chickweed; [4]): 100; Plant response rating, Purslane (common purslane; [1]): 100; Plant response rating, Purslane (common purslane; [9]): 100; Plant response rating, Purslane (common purslane; [5]): 100; Plant response rating, Purslane (common purslane; [10]): 100; Plant response rating, Purslane (common purslane; [7]): 100; Plant response rating, Purslane (common purslane; [8]): 100; Plant response rating, Purslane (common purslane; [3]): 100; Plant response rating, Purslane (common purslane; [4]): 75; Plant response rating, Sowthistle (common sowthistle; [1]): 100; Plant response rating, Sowthistle (common sowthistle; [9]): 100; Plant response rating, Sowthistle (common sowthistle; [5]): 60; Plant response rating, Sowthistle (common sowthistle; [10]): 100; Plant response rating, Sowthistle (common sowthistle; [7]): 100; Plant response rating, Sowthistle (common sowthistle; [8]): 100; Plant response rating, Sowthistle (common sowthistle; [3]): 90; Plant response rating, Sowthistle (common sowthistle; [4]): 90; Plant response rating, Black Mustard (mustard; [1]): 100; Plant response rating, Black Mustard (mustard; [9]): 100; Plant response rating, Black Mustard (mustard; [5]): 100; Plant response rating, Black Mustard (mustard; [10]): 100; Plant response rating, Black Mustard (mustard; [7]): 100; Plant response rating, Black Mustard (mustard; [8]): 100; Plant response rating, Black Mustard (mustard; [3]): 100; Plant response rating, Black Mustard (mustard; [4]): 98; Plant response rating, Bluegrass (annual bluegrass; [1]): 98; Plant response rating, Bluegrass (annual bluegrass; [9]): 98; Plant response rating, Bluegrass (annual bluegrass; [5]): 95; Plant response rating, Bluegrass (annual bluegrass; [10]): 95; Plant response rating, Bluegrass (annual bluegrass; [7]): 100; Plant response rating, Bluegrass (annual bluegrass; [8]): 100; Plant response rating, Bluegrass (annual bluegrass; [3]): 95; Plant response rating, Bluegrass (annual bluegrass; [4]): 90; Plant response rating, Spiderwort (tropical spiderwort; [1]): 65; Plant response rating, Spiderwort (tropical spiderwort; [9]): 50; Plant response rating, Spiderwort (tropical spiderwort; [5]): 30; Plant response rating, Spiderwort (tropical spiderwort; [10]): 50; Plant response rating, Spiderwort (tropical spiderwort; [7]): 50; Plant response rating, Spiderwort (tropical spiderwort; [8]): 80; Plant response rating, Spiderwort (tropical spiderwort; [3]): 30; Plant response rating, Spiderwort (tropical spiderwort; [4]): 20; Plant response rating, Goosegrass (goosegrass; [1]): 98; Plant response rating, Goosegrass (goosegrass; [9]): 98; Plant response rating, Goosegrass (goosegrass; [5]): 95; Plant response rating, Goosegrass (goosegrass; [10]): 95; Plant response rating, Goosegrass (goosegrass; [7]): 100; Plant response rating, Goosegrass (goosegrass; [8]): 100; Plant response rating, Goosegrass (goosegrass; [3]): 98; Plant response rating, Goosegrass (goosegrass; [4]): 95; Plant response rating, Itchgrass (itchgrass; [1]): 98; Plant response rating, Itchgrass (itchgrass; [9]): 95; Plant response rating, Itchgrass (itchgrass; [5]): 100; Plant response rating, Itchgrass (itchgrass; [10]): 100; Plant response rating, Itchgrass (itchgrass; [7]): 100; Plant response rating, Itchgrass (itchgrass; [8]): 100; Plant response rating, Itchgrass (itchgrass; [3]): 95; Plant response rating, Itchgrass (itchgrass; [4]): 80; Plant response rating, Sandbur (southern sandbur; [1]): 98; Plant response rating, Sandbur (southern sandbur; [9]): 80; Plant response rating, Sandbur (southern sandbur; [5]): 50; Plant response rating, Sandbur (southern sandbur; [10]): 60; Plant response rating, Sandbur (southern sandbur; [7]): 75; Plant response rating, Sandbur (southern sandbur; [8]): 80; Plant response rating, Sandbur (southern sandbur; [3]): 75; Plant response rating, Sandbur (southern sandbur; [4]): 0
